From patent publication US20220288115A1, “ORAL DISODIUM PYR[…] USE IN REDUCING CALCIFICATION” (priority 2019, published 2022)

Tests used:
[1] = human subjects
Excerpt: FIG. 1: Plasma bioavailability of PPi after oral disodium PPi and after oral tetrasodium PPI. Results of different subjects (#) are shown, as well as AUC and AUC/mg PPi.
In this experiment PPI bioavailability was compared between tetrasodium PPi and disodium PPi in different human subjects (as indicated by # in FIG. 1).

[2] = single oral dose, PXE patient, fasting baseline 0.7 μmol/l (FIG. 2)
Excerpt: Legend indicates the dose (per kg of body weight) and time of PPi consumption.

[3] = three months after the operation; 44 mg/kg per oral once daily
Description: As PXE patients have an increased risk of spontaneous gastrointestinal bleeding, aspirin medication was not used preoperatively. […] With the present therapy the patients absorbs extra 0.8 mg sodium and is informed to decrease daily salt intake.
Aspirin and PPi therapy were continued unaltered.

## O=P([O-])([O-])OP(=O)(O)O.[Na+].[Na+] [disodium pyrophosphate]
[1]; compared with oral tetrasodium PPi (FIG. 1)
  PPi bioavailability in plasma after oral uptake: much better bioavailable
[1]; oral, compared with tetrasodium PPi
  area under the curve (AUC) and calculated AUC/mg PPi of plasma PPi: higher
[2]
  time plasma pyrophosphate stayed in the normal fasting range of healthy controls (0.8-1.6 μmol/l): 180 min
One year postoperatively
  re-stenosis on computed tomography angiography (CTA): without signs of re-stenosis
One year postoperatively, baseline 0.19, 44 mg/kg per oral once daily
  Walking Impairment Questionnaire (WIQ) score: 0.89
Three months after the operation
  re-stenosis in the operated area on MRA: no re-stenosis
[3]
  safety laboratory tests: normal
